Data as given in patent US20240408068A1, “Helicase Primase Inhibitors For Treating Cancer In A Combination Therapy With Oncolytic Viruses” (priority 2018, published 2024).

System: CT26 tumor
Experiment: oHSV animal model: tumor volume in syngeneic bilaterally-inoculated subcutaneous CT26 tumor-bearing mice
Format: in vivo, Balbc/j mice
Method: Assessment of the efficacy of an oncolytic virus treatment in the presence and absence of a potential virostatic test compound (Example 7(-)) in a syngeneic bilaterally-inoculated subcutaneous CT26 tumor-bearing mouse model.
CT26 tumor cells (500 000 cell in 100 μL) were subcutaneously inoculated bilaterally into the right and left flanks of 9 week-old immuno-competent female Balbc/j mice after 20 days acclimation (Provider: Charles River Laboratories—BP 0109—F 69592 L'Arbresle Cedex).
The inoculation procedure of colorectal CT26 tumors in mice was as follows: • At the end of the 20 days acclimation period, and in order to identify the animal all along the experimental procedure (for tumor volume monitoring in particular), mice were identified using tattoo. • The day before tumor cell inoculation, mice have been shaved at the injection sites, under isoflurane gas anesthesia (4% induction and 2% maintain). • The day of inoculation, mice were anesthetized with gas anesthesia with 4% isoflurane induction and 2% isoflurane for anesthesia maintaining. • Tumor cells to be inoculated were resuspended in sterile PBS and the needed volume was loaded in 1 ml syringe with a 26 gauge needle (500000 cells/100 μL).
Virus injection (with HSV-1 Herpes Simplex Virus or vehicle) was performed with a 29G gauge needle (0.5 mL) insulin syringe when tumors reached an average volume of 40 mm^3(on day 7). At this time, virus was injected intratumorally (50 μL corresponding to 5×10^6 HSV-1 (experimental groups 3, 5, 6 and 8) or 100 μL corresponding to 1×10^8 HSV-1 (experimental groups 4 and 7)), into the tumor of the right flank.
Pharmacological animal groups (8 animal per group, 64 animals in total) were organized as such: • 1. Control virus-untreated group: test compound vehicle (200 μL, 5% DMSO; 0.5% hydroxypropylmethylcellulose (HPMC) in PBS) oral gavage (20 gauge needle standard suspension applicator), once a day, for 10 days and starting 72 h after virus injection for the other groups. • 2. Control virus vehicle-treated group: 50 μL of virus vehicle, intratumoral injection when tumors reached an average volume of app. 40 mm^3, with test compound vehicle, oral gavage, once a day, for 10 days and starting 72 h after vehicle virus injection. • 3. HSV-1 (quantity 1; 5×10^6 pfu)-treated group: 50 μL of HSV-1 (5×10^6), intratumoral injection when tumors reached an average volume of app. 40 mm^3, with test compound vehicle, oral gavage, once a day, for 10 days and starting 72 h after virus injection, and with anti-PD1/anti-CTLA4 vehicle, intraperitoneal injection (200 μL PBS) on the same day as the virus injection, and then 3 administrations spaced 3 days apart each other (day 7, 10, 13 and 16). • 4. HSV-1 (quantity 2; 1×10^8 pfu)-treated group: 100 μL of HSV-1 (1×10^8) intratumoral injection when tumors reached an average volume of app. 40 mm^3, with test compound vehicle, oral gavage, once a day, for 10 days and starting 72 h after virus injection. • 5. HSV-1 (quantity 1; 5×10^6 pfu)-test compound-treated group: 50 μL of HSV-1 (5×10^6), intratumoral injection when tumors reached an average volume of app. 40 mm^3, with Example 7(-) (10 mg/kg, 20 mg/mL stock in DMSO, final 1 mg/mL, 5% DMSO; 0.5% HPMC in PBS (w/v), the suspension has been sonicated (2 min ultrasound bath, room temperature)), oral gavage (200 μL), once a day, for 10 days and starting 72 h after virus injection, and with anti-PD1/anti-CTLA4 vehicle, intraperitoneal injection (200 μL, PBS) on the same day as the virus injection, and then 3 administrations spaced 3 days apart each other (day 7, 10, 13 and 16). • 6. […]

[1] = day 0, with HSV-1 1·10^8, 10 mg/kg po from 72 h pi
[2] = day 0, with HSV-1 5·10^6, 10 mg/kg po from 0 h pi
[3] = day 0, with HSV-1 5·10^6, 10 mg/kg po from 72 h pi
[4] = day 5, with HSV-1 1·10^8, 10 mg/kg po from 72 h pi
[5] = day 5, with HSV-1 5·10^6, 10 mg/kg po from 0 h pi
[6] = day 5, with HSV-1 5·10^6, 10 mg/kg po from 72 h pi
[7] = day 7, with HSV-1 1·10^8, 10 mg/kg po from 72 h pi
[8] = day 7, with HSV-1 5·10^6, 10 mg/kg po from 0 h pi
[9] = day 7, with HSV-1 5·10^6, 10 mg/kg po from 72 h pi
[10] = day 10, with HSV-1 1·10^8, 10 mg/kg po from 72 h pi
[11] = day 10, with HSV-1 5·10^6, 10 mg/kg po from 0 h pi
[12] = day 10, with HSV-1 5·10^6, 10 mg/kg po from 72 h pi
[13] = day 12, with HSV-1 1·10^8, 10 mg/kg po from 72 h pi
[14] = day 12, with HSV-1 5·10^6, 10 mg/kg po from 0 h pi
[15] = day 12, with HSV-1 5·10^6, 10 mg/kg po from 72 h pi
[16] = day 14, with HSV-1 1·10^8, 10 mg/kg po from 72 h pi
[17] = day 14, with HSV-1 5·10^6, 10 mg/kg po from 0 h pi
[18] = day 14, with HSV-1 5·10^6, 10 mg/kg po from 72 h pi
[19] = day 17, with HSV-1 1·10^8, 10 mg/kg po from 72 h pi
[20] = day 17, with HSV-1 5·10^6, 10 mg/kg po from 0 h pi
[21] = day 17, with HSV-1 5·10^6, 10 mg/kg po from 72 h pi
[22] = day 19, with HSV-1 1·10^8, 10 mg/kg po from 72 h pi
[23] = day 19, with HSV-1 5·10^6, 10 mg/kg po from 0 h pi
[24] = day 19, with HSV-1 5·10^6, 10 mg/kg po from 72 h pi

Cc1nc(N(C)C(=O)Cc2ccc(-c3cc(F)ccc3F)cc2)sc1[S@@](C)(=N)=O [Example 7(−), (−)-(S)-2-(2′,5′-Difluoro-[1,1′-biphenyl]-4-yl)-N-methyl-N-(4-methyl-5-(S-methylsulfonimidoyl)thiazol-2-yl)acetamide]
Median tumor volume - Left tumors [1]: 0 mm^3 | Median tumor volume - Right tumors [1]: 0 mm^3 | Median tumor volume - Right tumors (day 0, with HSV-1 5·10^6 + aPD-1 + aCTLA4, 10 mg/kg po from 72 h pi): 0 mm^3 | Median tumor volume - Left tumors (day 0, with HSV-1 5·10^6 + aPD-1 + aCTLM, 10 mg/kg po from 72 h pi): 0 mm^3 | Median tumor volume - Left tumors [2]: 0 mm^3 | Median tumor volume - Right tumors [2]: 0 mm^3 | Median tumor volume - Left tumors [3]: 0 mm^3 | Median tumor volume - Right tumors [3]: 0 mm^3 | Median tumor volume - Left tumors [4]: 18.17 mm^3 | Median tumor volume - Right tumors [4]: 16.55 mm^3 | Median tumor volume - Right tumors (day 5, with HSV-1 5·10^6 + aPD-1 + aCTLA4, 10 mg/kg po from 72 h pi): 16.235 mm^3 | Median tumor volume - Left tumors (day 5, with HSV-1 5·10^6 + aPD-1 + aCTLM, 10 mg/kg po from 72 h pi): 14.66 mm^3 | Median tumor volume - Left tumors [5]: 15.755 mm^3 | Median tumor volume - Right tumors [5]: 16.705 mm^3 | Median tumor volume - Left tumors [6]: 14.155 mm^3 | Median tumor volume - Right tumors [6]: 17.665 mm^3 | Median tumor volume - Left tumors [7]: 23.55 mm^3 | Median tumor volume - Right tumors [7]: 39.735 mm^3 | Median tumor volume - Right tumors (day 7, with HSV-1 5·10^6 + aPD-1 + aCTLA4, 10 mg/kg po from 72 h pi): 31.03 mm^3 | Median tumor volume - Left tumors (day 7, with HSV-1 5·10^6 + aPD-1 + aCTLM, 10 mg/kg po from 72 h pi): 18.32 mm^3 | Median tumor volume - Left tumors [8]: 21.61 mm^3 | Median tumor volume - Right tumors [8]: 25.5 mm^3 | Median tumor volume - Left tumors [9]: 22.85 mm^3 | Median tumor volume - Right tumors [9]: 36.435 mm^3 | Median tumor volume - Left tumors [10]: 33.055 mm^3 | Median tumor volume - Right tumors [10]: 74.725 mm^3 | Median tumor volume - Right tumors (day 10, with HSV-1 5·10^6 + aPD-1 + aCTLA4, 10 mg/kg po from 72 h pi): 72.935 mm^3 | Median tumor volume - Left tumors (day 10, with HSV-1 5·10^6 + aPD-1 + aCTLM, 10 mg/kg po from 72 h pi): 47.345 mm^3 | Median tumor volume - Left tumors [11]: 43.385 mm^3 | Median tumor volume - Right tumors [11]: 43.32 mm^3 | Median tumor volume - Left tumors [12]: 55.18 mm^3 | Median tumor volume - Right tumors [12]: 45.605 mm^3 | Median tumor volume - Left tumors [13]: 92.98 mm^3 | Median tumor volume - Right tumors [13]: 115.17 mm^3 | Median tumor volume - Right tumors (day 12, with HSV-1 5·10^6 + aPD-1 + aCTLA4, 10 mg/kg po from 72 h pi): 94.56 mm^3 | Median tumor volume - Left tumors (day 12, with HSV-1 5·10^6 + aPD-1 + aCTLM, 10 mg/kg po from 72 h pi): 58.12 mm^3 | Median tumor volume - Left tumors [14]: 73.31 mm^3 | Median tumor volume - Right tumors [14]: 48.78 mm^3 | Median tumor volume - Left tumors [15]: 121.82 mm^3 | Median tumor volume - Right tumors [15]: 76.655 mm^3 | Median tumor volume - Left tumors [16]: 224.29 mm^3 | Median tumor volume - Right tumors [16]: 142.49 mm^3 | Median tumor volume - Right tumors (day 14, with HSV-1 5·10^6 + aPD-1 + aCTLA4, 10 mg/kg po from 72 h pi): 105.02 mm^3 | Median tumor volume - Left tumors (day 14, with HSV-1 5·10^6 + aPD-1 + aCTLM, 10 mg/kg po from 72 h pi): 71.44 mm^3 | Median tumor volume - Left tumors [17]: 112.98 mm^3 | Median tumor volume - Right tumors [17]: 39.01 mm^3 | Median tumor volume - Left tumors [18]: 141.445 mm^3 | Median tumor volume - Right tumors [18]: 86.87 mm^3 | Median tumor volume - Left tumors [19]: 348.78 mm^3 | Median tumor volume - Right tumors [19]: 93.34 mm^3 | Median tumor volume - Right tumors (day 17, with HSV-1 5·10^6 + aPD-1 + aCTLA4, 10 mg/kg po from 72 h pi): 60.17 mm^3 | Median tumor volume - Left tumors (day 17, with HSV-1 5·10^6 + aPD-1 + aCTLM, 10 mg/kg po from 72 h pi): 66.86 mm^3 | Median tumor volume - Left tumors [20]: 169.68 mm^3 | Median tumor volume - Right tumors [20]: 60.71 mm^3 | Median tumor volume - Left tumors [21]: 219.98 mm^3 | Median tumor volume - Right tumors [21]: 99.21 mm^3 | Median tumor volume - Left tumors [22]: 352.82 mm^3 | Median tumor volume - Right tumors [22]: 100 mm^3 | Median tumor volume - Right tumors (day 19, with HSV-1 5·10^6 + aPD-1 + aCTLA4, 10 mg/kg po from 72 h pi): 84.68 mm^3 | Median tumor volume - Left tumors (day 19, with HSV-1 5·10^6 + aPD-1 + aCTLM, 10 mg/kg po from 72 h pi): 49.84 mm^3 | Median tumor volume - Left tumors [23]: 474.53 mm^3 | Median tumor volume - Right tumors [23]: 72.69 mm^3 | Median tumor volume - Left tumors [24]: 285.49 mm^3 | Median tumor volume - Right tumors [24]: 105 mm^3
